Results on 1 compound are retold here after patent US20120295838A1, “Selective poly-substituted glycine antibiotics and related compositions” (priority 2008, published 2012).

Square brackets hold non-standard residues; d marks the D form. Peptide text beside a SMILES is read from it. Nspe = C[C@H](NCC(=O)O)c1ccccc1; Nlys = NCCCCNCC(=O)O

The nature of series [1]: MTS assay, NIH 3T3 cells. The series is classed as cell-based, mouse. The settings on record: NIH 3T3 fibroblast cells; Table 6; 50% inhibitory dose against NIH 3T3 mouse fibroblast cells; read-out: ID50. The method in brief:
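NIH/3T3 cells seeded at 5,000 per well, grown a day in DMEM with 10% FBS, then washed and exposed to serially diluted peptoid in HBSS together with MTS reagent. Absorbance at 490 nm read after 3 hours at 37 °C as a measure of metabolic activity; mean of six replicates.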

For series [2], the system named is E. coli ATCC 35218. The series is classed as cell-based. The settings on record: Table 8; CAMHB.
Series [3] relates to Staphyloccus aureus (ATCC #25923). Description: Murine intraperitoneal infection model. The series is classed as in vivo. Particulars: mouse, S. aureus I.P., 4 mg/kg peptoid I.P.; eleven mice for 1-Nhis6,12. How it is done:
Using a murine peritoneal injection mouse model, the ability of peptoids to treat infection was evaluated in vivo. The results from three separate studies of peptoid 1 and two of peptoid 1-Nhis6,12 against saline treated controls are shown in FIG. 7. The horizontal line represents the geometric mean of each population.
Murine intraperitoneal infection model. Bacteria was prepared by inoculating 5 mL of MHB with a single colony of Staphyloccus aureus (ATCC #25923) from a freshly streaked plate and grown overnight at 37 C. The following morning, the bacteria was subcultured by diluting 1/3 in MHB and grown for approximately 1 .5 hours. The bacteria were then diluted 10-fold in a 5% mucin in PBS solution and thoroughly mixed. A sample was reserved to later determine the amount of bacteria the mice received.
Mice were weighed, marked, and injected I.P. with 200 uL of S. aureus inoculum. Four hours post infection, mice were treated I.P. with 4 mg/kg peptoid (˜100 ug per mouse). The infection is allowed to proceed overnight. Mice were euthanized by CO2 asphyxiation after 24 hours, and the peritoneal cavity was exposed and lavaged with 5 mL PBS. The lavage was mixed and reserved on ice until plating. The lavages were diluted to 10^−5 (in1/10 increments) in PBS, and all dilutions were plated onto MH agar, in duplicate. 50 uL of lavage was spot plated, allowed to dry, and incubated overnight at 37° C. Colonies were counted the following day, and the CFU/ml of each sample was calculated. Plates that had too many colonies to count were assigned an arbitrary number of 1000 colonies.

Series [4] relates to human erythrocytes. Description: Hemolysis assay. The series is classed as cell-based. The method in brief:
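Heparinised fresh human erythrocytes, 20 vol % in PBS pH 7.4, mixed 1:1 with 1:2 serially diluted peptoid and incubated 1 h at 37 °C. PBS alone as 0% and 0.2 vol % Triton X-100 as 100% hemolysis; after 1200 g spin for 15 min, supernatant A350 read.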

Series [5] relates to both strains of E. faecalis. The series is classed as cell-based. The settings on record: text summary of Table 7A. How it is done: The activities of ampetoids tested against BSL2 Gram-positive strains, however, compared very favorably to those of pexiganan.
Broad-spectrum antibacterial assays. MICs of compounds were determined by microdilution procedure in Mueller-Hinton broth (MHB) in accordance with CLSI M7-A6 protocols in a manner similar to that described for the screen antibacterial assays. Inoculated microtiter plates were incubated at 35° C. for 24 hours prior to the result being recorded. Four ATCC strains that were used as standards are recommended by CLSI: Pseudomonas aeruginosa ATCC 27853, Escherichia coli ATCC 25922, Staphylococcus aureus ATCC 29213 and Enterococcus faecalis ATCC 29212. Other strains from the ATCC collection include Proteus vulgaris ATCC 49132, Proteus mirabilis ATCC 35659, Klebsiella pneumoniae ATCC 33495, Enterobacter aerogenes ATCC 35029 and Serratia marcescens ATCC 13880. S. aureus NRS100 (COL) is a well characterized methicillian-resistant S. aureus (MRSA) strain. The strains S. aureus VAN1 and S. aureus VAN2, vancomycin-resistant MRSA strains that were isolated in Michigan and Pennsylvania, were the first vancomycin-resistant strains clinically isolated. S. aureus NRS 119 and S. aureus NRS 120 are linezolid-resistant isolates from the Network on Antimicrobial Resistance in S. aureus (NARSA) collection. […]

With `C[C@@H](c1ccccc1)N(CC(N)=O)C(=O)CN(C(=O)CN(CCCCN)C(=O)CN(C(=O)CN(C(=O)CN(CCCCN)C(=O)CN(C(=O)CN(C(=O)CN(CCCCN)C(=O)CN(C(=O)CN(C(=O)CNCCCCN)[C@@H](C)c1ccccc1)[C@@H](C)c1ccccc1)[C@@H](C)c1ccccc1)[C@@H](C)c1ccccc1)[C@@H](C)c1ccccc1)[C@@H](C)c1ccccc1)[C@@H](C)c1ccccc1` [compound 1, H-(NLys-Nspe-Nspe)4-NH2] (H-[Nlys][Nspe][Nspe][Nlys][Nspe][Nspe][Nlys][Nspe][Nspe][Nlys][Nspe][Nspe]-NH2), the CC50 at 3 h in series [1] was found to be 5.1 µM. For the same compound, in series [2], the “MIC for E. coli ATCC 35218” value was 6.3 µM. Besides, in series [3], the “mice that died prematurely during the exposure period” value is recorded as “no mice”. Further, in series [4] (Table 6, 10% hemolytic dose), the HD10 was 21 µM. In series [4] (Table 8), this compound yielded an HD10 of 14 µM and an HD50 of 63 µM. Besides, the “MIC, range over both strains of E. faecalis” value in series [5] was in the range of 4 to 8 µg/mL.
